According to patent publication US8314139B2, “Toluene sulfonic acid salt of a therapeutic compound and pharmaceutical compositions thereof” (Pfizer Inc., priority 2007, dated 2012):
Structures can show the parent of a compound that is named as a salt.

Tests used:
[1] = Hygroscopicity by dynamic vapor sorption (DVS); format: physicochemical
Protocol: Hygroscopicity was assessed using a dynamic vapor sorption technique in which an accurately weighed sample is subjected to progressively changing water vapor pressure while simultaneously recording the weight change. The experiment is conducted isothermally at 25° C.
FIG. 3 provides a moisture sorption isotherm of the tosylate salt of trans-N-ethyl-3-fluoro-3-[3-fluoro-4-(pyrrolidin-1-ylmethyl)phenyl]cyclobutanecarboxamide, with absorption as the (♦) curve and desorption as the (▪) curve, plotting percent change in weight as a function of relative humidity, using the kinetic flow through method (8.1 mg sample, 25° C.).
During the initial drying cycle (25° C., 1% RH), less than 0.1% weight loss was observed, which is consistent with an anhydrous non-hygroscopic form. An approximate 0.06% increase in weight was detected by DVS analysis when a sample was exposed to relative humidities from 5% to 90% at 25° C. The desorption phase mimicked the sorption phase when the relative humidity was decreased to 5% (see FIG. 3). Additionally, the powder x-ray diffraction pattern for the sample after hygroscopicity testing matched the pattern of the sample prior to that testing.

[2] = Aqueous solubility (RP-HPLC after temperature cycling); format: physicochemical; conditions: for solubility at 25 h: thermodynamic from solid
Protocol: The following information was determined in regard of aqueous solubility. […] These values represent the solubility of the crystalline compound determined via RP-HPLC analysis after subjecting the drug media mixture to a temperature cycling program (40° C. for 8 hours, 15° C. for 5 hours, and 25° C. for 12 hours).

weight loss during initial drying cycle ([1]; 25° C., 1% RH): less than 0.1% | increase in weight by DVS analysis ([1]; relative humidities from 5% to 90% at 25° C.): ~0.06% | hygroscopicity (in words) ([1]; summary statement): only slightly hygroscopic | solubility at 25 h ([2]; 25 °C, fassif, 0.1M phosphate buffered saline with 0.5 weight percent sodium tauracholate/phosphatidyl choline salts, final pH 6.5, temperature cycling): > 11 mg/mL | solubility at 25 h ([2]; 25 °C, unbuffered water, final pH 3.8, temperature cycling): 23.6 mg/mL | solubility at 25 h ([2]; aqueous buffer, 0.1M phosphate buffered saline, final pH 6.5, crystalline compound, temperature cycling 40/15/25° C.): > 10 mg/mL | aqueous solubility (in words) ([2]; summary statement): high aqueous solubility
SMILES: CCNC(=O)[C@H]1C[C@@](F)(c2ccc(CN3CCCC3)c(F)c2)C1 [tosylate salt, (trans)-3-fluoro-3-[3-fluoro-4-(pyrrolidin-1-ylmethyl)phenyl]cyclobutanecarboxylic acid ethylamide tosylate salt]
